For 33 compounds, Ki results are on record in patent publication US8921376B2, “Pyrrolopyridines useful as inhibitors of protein kinase” (Vertex Pharmaceuticals Incorporated, priority 2005, dated 2014).

What all share (assay type): biochemical
One test has as its target JAK2 (Homo sapiens, UniProt O60674). Briefly: JAK2 inhibition assay (as Example 3 with JAK-2 enzyme). The method in brief:
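In HEPES pH 7.4 buffer with 10 mM MgCl2, 1 mM DTT, 25 mM NaCl and 0.01% BSA, JAK2 enzyme phosphorylated poly(Glu)4Tyr (final 15 μM) using 33P-ATP (final 12 μM) for 20 min at room temperature (25 °C). Reactions stopped with TCA; incorporated 33P measured by scintillation after filtration.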

The next test addresses ROCK I (Homo sapiens, UniProt Q13464). Briefly: ROCK-I inhibition assay (radioactive enzyme assay, MBP substrate). The method in brief:
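Human ROCK at 5 nM phosphorylated 27 μM myelin basic protein with 13 μM [γ-33P]ATP (final) in HEPES pH 7.5, MgCl2, NaCl, DTT and 1.5% DMSO. Reactions ran 2 h at room temperature before TCA quench and filter-plate scintillation counting. After background subtraction, data were fit to give Ki(app).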

The next test addresses T1, JAK3 (Homo sapiens, UniProt P52333).
T1 sequence (P52333 1-1124): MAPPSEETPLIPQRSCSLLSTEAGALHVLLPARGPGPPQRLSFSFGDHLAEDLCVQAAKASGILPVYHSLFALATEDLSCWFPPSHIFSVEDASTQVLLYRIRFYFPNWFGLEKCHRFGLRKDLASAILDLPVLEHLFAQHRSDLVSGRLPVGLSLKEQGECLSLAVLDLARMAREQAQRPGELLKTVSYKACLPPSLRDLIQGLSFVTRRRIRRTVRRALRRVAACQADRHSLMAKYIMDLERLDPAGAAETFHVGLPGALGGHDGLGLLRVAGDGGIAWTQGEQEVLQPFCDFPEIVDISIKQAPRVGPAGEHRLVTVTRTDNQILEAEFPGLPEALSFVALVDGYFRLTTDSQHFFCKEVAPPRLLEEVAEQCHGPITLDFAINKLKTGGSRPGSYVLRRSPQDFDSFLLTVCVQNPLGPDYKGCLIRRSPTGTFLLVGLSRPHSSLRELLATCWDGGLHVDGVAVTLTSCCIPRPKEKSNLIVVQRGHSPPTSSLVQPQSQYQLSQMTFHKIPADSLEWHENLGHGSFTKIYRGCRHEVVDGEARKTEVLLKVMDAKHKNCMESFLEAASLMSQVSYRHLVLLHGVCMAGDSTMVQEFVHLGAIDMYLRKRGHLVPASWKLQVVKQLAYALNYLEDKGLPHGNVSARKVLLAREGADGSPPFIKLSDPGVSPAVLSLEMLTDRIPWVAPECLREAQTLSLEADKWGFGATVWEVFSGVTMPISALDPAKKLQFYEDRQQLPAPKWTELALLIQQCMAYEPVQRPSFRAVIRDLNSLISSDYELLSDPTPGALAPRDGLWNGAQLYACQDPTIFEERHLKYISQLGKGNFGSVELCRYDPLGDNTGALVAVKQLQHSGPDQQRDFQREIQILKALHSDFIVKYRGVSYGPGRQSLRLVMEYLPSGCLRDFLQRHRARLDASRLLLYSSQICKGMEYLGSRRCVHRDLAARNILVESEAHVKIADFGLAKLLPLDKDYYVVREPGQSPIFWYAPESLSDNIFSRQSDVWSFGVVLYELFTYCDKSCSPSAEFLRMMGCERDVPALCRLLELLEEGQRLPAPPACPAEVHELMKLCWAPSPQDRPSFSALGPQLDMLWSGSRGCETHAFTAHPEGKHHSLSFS
Briefly: JAK3 inhibition assay (33P incorporation into poly(Glu)4Tyr). The method in brief:
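After TCA quench and filter harvest, scintillation counting of 33P measured phosphorylation of poly(Glu)4Tyr (1 μM) by 1 nM JAK3. The 20-min, 25° C. reaction contained 5 μM ATP (200 μCi/μmole) in pH 7.4 HEPES buffer with 10 mM MgCl2.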

Where [1] appears, read: enzyme inhibition, Ki(app), Table 5.
The mark [2] stands for this setting: Table 6, enzyme inhibition data (Ki).

Structures are written as SMILES. Where only a bound is given, the exact number is not on record here.

JAK2, sequence (O60674 whole entry): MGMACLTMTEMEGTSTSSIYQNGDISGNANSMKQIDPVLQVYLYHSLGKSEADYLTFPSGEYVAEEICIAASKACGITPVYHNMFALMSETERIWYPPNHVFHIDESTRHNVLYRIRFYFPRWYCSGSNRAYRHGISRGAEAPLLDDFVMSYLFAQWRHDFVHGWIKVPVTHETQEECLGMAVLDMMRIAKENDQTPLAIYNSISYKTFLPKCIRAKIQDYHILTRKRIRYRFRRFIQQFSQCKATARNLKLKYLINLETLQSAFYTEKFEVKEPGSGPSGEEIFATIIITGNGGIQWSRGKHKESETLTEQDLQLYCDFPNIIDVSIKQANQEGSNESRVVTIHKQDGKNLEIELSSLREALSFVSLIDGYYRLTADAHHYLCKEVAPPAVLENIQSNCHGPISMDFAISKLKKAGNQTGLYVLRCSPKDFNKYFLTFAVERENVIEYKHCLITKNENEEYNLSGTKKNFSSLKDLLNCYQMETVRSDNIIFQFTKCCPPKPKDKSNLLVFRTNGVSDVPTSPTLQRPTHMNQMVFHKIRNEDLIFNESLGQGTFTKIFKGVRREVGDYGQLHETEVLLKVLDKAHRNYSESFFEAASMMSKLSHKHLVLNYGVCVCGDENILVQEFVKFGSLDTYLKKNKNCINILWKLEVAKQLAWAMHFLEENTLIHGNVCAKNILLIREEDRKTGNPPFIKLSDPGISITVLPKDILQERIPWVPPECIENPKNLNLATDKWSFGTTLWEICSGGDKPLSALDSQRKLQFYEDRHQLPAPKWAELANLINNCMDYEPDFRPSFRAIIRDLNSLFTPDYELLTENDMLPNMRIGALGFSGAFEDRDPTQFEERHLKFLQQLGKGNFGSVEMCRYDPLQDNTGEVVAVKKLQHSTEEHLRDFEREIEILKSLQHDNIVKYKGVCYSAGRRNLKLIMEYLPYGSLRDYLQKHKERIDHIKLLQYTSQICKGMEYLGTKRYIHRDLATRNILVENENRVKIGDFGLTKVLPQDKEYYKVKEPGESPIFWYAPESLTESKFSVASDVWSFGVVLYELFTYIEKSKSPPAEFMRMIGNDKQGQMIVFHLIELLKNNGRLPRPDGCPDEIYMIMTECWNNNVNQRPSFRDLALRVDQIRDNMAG
ROCK I, sequence (Q13464 whole entry): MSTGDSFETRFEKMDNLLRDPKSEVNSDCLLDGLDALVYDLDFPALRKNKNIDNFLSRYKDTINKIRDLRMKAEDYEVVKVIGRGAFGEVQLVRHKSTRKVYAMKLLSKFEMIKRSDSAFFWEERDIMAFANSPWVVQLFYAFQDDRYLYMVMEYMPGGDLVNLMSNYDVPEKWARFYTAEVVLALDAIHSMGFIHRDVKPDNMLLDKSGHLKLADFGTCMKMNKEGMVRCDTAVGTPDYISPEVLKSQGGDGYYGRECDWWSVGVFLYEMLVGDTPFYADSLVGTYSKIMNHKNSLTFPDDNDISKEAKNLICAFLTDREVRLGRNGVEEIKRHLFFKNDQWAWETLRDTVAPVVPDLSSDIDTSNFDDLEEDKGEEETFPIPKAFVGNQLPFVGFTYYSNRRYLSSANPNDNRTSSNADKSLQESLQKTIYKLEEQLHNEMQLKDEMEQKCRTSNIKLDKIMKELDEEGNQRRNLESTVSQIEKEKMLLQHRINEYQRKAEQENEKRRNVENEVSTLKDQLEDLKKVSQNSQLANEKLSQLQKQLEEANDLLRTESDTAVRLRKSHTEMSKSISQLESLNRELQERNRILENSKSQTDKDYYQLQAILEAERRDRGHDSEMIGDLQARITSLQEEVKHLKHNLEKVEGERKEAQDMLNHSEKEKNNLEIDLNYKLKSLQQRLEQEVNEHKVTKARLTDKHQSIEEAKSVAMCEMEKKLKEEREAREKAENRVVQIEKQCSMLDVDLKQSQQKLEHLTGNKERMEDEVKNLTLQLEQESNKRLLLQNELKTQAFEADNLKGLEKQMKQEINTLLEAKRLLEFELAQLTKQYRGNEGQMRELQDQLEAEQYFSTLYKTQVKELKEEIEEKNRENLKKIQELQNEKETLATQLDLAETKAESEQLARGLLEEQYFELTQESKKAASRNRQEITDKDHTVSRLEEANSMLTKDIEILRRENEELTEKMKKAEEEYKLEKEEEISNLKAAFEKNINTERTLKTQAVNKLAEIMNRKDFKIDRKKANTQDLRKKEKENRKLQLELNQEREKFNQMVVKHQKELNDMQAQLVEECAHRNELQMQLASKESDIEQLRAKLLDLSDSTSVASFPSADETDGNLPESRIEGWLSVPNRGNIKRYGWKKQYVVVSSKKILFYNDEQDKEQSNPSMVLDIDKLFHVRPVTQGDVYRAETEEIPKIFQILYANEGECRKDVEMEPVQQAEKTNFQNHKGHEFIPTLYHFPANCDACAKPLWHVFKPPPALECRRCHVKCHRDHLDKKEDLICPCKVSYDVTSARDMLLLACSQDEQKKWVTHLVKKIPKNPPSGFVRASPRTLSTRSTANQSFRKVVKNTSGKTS

For `Cn1cc(-c2c(Cl)cnc3[nH]ccc23)cn1` [compound 70, 5-Chloro-4-(1-methyl-1H-pyrazol-4-yl)-1H-pyrrolo[2,3b]pyridine], the Ki at JAK2 (enzyme inhibition, Table 5) is below 500 nM; on ROCK I (setting [1]) it was 500 to 5000 nM; at JAK3 (enzyme inhibition, Table 5) it was below 500 nM.
Turning to `NC(=O)C1CCCN1C(=O)c1cc(-c2ccnc3[nH]ccc23)c[nH]1` (stereo not drawn) [compound 368], the Ki at JAK2 (setting [2]) is 500 to 5000 nM; at ROCK I (setting [2]), 500 to 5000 nM; on JAK3 (setting [2]) it was below 500 nM.
As to `Cc1ccc(C(N)=O)cc1Nc1c(Cl)cnc2[nH]ccc12` [compound 160], the Ki is 500 to 5000 nM on JAK2 (setting [2]), above 4000 nM on ROCK I (setting [2]) and 500 to 5000 nM at JAK3 (setting [2]).
For the compound `CC(C)NC(=O)c1cc(-c2c(Cl)cnc3[nH]ccc23)c[nH]1` [compound 280], the Ki was below 500 nM at JAK2 (setting [2]), 500 to 5000 nM at ROCK I (setting [2]) and below 500 nM at JAK3 (setting [2]).
As for `O=C1NCCCC[C@@H]1Nc1c(Cl)cnc2[nH]ccc12` [compound 228], the Ki on JAK2 (setting [2]) was below 500 nM; at ROCK I (setting [2]), above 4000 nM; on JAK3 (setting [2]) it was below 500 nM.
On to `O=C(O)c1cccc(-c2ccnc3[nH]ccc23)c1` [compound 47, 3-(1H-Pyrrolo[2,3-b]pyridin-4-yl)-benzoic acid], for which the Ki is 500 to 5000 nM at JAK2 (enzyme inhibition, Table 5); 500 to 5000 nM on ROCK I (setting [1]); 500 to 5000 nM at JAK3 (enzyme inhibition, Table 5).
Consider `CCOC(=O)c1cccc(-c2ccnc3[nH]ccc23)c1` [compound 46, 3-(1H-Pyrrolo[2,3-b]pyridin-4-yl)-benzoic acid ethyl ester], for which the Ki at JAK2 (enzyme inhibition, Table 5) is 500 to 5000 nM; on ROCK I (setting [1]), 500 to 5000 nM; on JAK3 (enzyme inhibition, Table 5), 500 to 5000 nM.
In the case of `CNc1ccccc1-c1ccnc2[nH]ccc12` [compound 381], the Ki is 500 to 5000 nM at JAK2 (setting [2]), above 4000 nM at ROCK I (setting [2]) and 500 to 5000 nM on JAK3 (setting [2]).
As to `CCCN(CCC)C(=O)c1cc(-c2c(Cl)cnc3[nH]ccc23)c[nH]1` [compound 340], the values for the Ki on JAK2 (setting [2]), at ROCK I (setting [2]) and on JAK3 (setting [2]) were below 500 nM, above 4000 nM and below 500 nM, respectively.
Consider `N#CCC(=O)N1CC[C@@H](Nc2c(Cl)cnc3[nH]ccc23)C1` [compound 190], for which the Ki at JAK2 (setting [2]) is below 500 nM; at ROCK I (setting [2]), 500 to 5000 nM; on JAK3 (setting [2]), below 500 nM.
On to `Cc1ccc(-c2c(Cl)cnc3[nH]ccc23)s1` [compound 140], for which the Ki was below 500 nM at JAK2 (setting [2]), 500 to 5000 nM on ROCK I (setting [2]) and below 500 nM at JAK3 (setting [2]).
Regarding `CN(C)Cc1cccc(-c2ccnc3[nH]ccc23)c1` [compound 85, Dimethyl-[3-(1H-pyrrolo[2,3-b]pyridin-4-yl)-benzyl]-amine], the Ki is 500 to 5000 nM on JAK2 (enzyme inhibition, Table 5); below 500 nM on ROCK I (setting [1]); below 500 nM at JAK3 (enzyme inhibition, Table 5).
Turning to `O=C(c1csc(-c2ccnc3[nH]ccc23)n1)N1CCCC1` [compound 418], the Ki on JAK2 (setting [2]) is below 500 nM; on ROCK I (setting [2]), below 500 nM; at JAK3 (setting [2]), 500 to 5000 nM.
Consider `c1cc(CN2CCCCC2)cc(-c2ccnc3[nH]ccc23)c1` [compound 87, 4-(3-Piperidin-1-ylmethyl-phenyl)-1H-pyrrolo[2,3-b]pyridine], for which the Ki fell in the range of 500 to 5000 nM at JAK2 (enzyme inhibition, Table 5); 500 to 5000 nM on ROCK I (setting [1]); 500 to 5000 nM at JAK3 (enzyme inhibition, Table 5).
Turning to `c1cc(NCC2CCCO2)nc(-c2ccnc3[nH]ccc23)c1` (stereo not drawn) [compound 36, N-((tetrahydrofuran-2-yl)methyl)-6-(1H-pyrrolo[2,3-b]pyridin-4-yl)pyridin-2-amine], the Ki lay in the range of 500 to 5000 nM at JAK2 (enzyme inhibition, Table 5); 500 to 5000 nM at ROCK I (setting [1]); 500 to 5000 nM on JAK3 (enzyme inhibition, Table 5).
On to `CCCS(=O)(=O)N1CC[C@@H](Nc2c(Cl)cnc3[nH]ccc23)C1` [compound 180], for which the Ki was below 500 nM on JAK2 (setting [2]), above 4000 nM on ROCK I (setting [2]) and below 500 nM on JAK3 (setting [2]).
On to `CC(C)(C(=O)CC#N)c1cccc(-c2ccnc3[nH]ccc23)n1` [compound 125, 4-(6-(1H-pyrrolo[2,3-b]pyridin-4-yl)pyridin-2-yl)-4-methyl-3-oxopentanitrile], for which the Ki is below 500 nM at JAK2 (enzyme inhibition, Table 5); below 500 nM on ROCK I (setting [1]); below 500 nM at JAK3 (enzyme inhibition, Table 5).
For the compound `O=C(c1cc(-c2c(F)cnc3[nH]ccc23)c[nH]1)N(CCC(F)(F)F)CC1CC1` [compound 390], the Ki at JAK2 (setting [2]) was below 500 nM; at ROCK I (setting [2]), 500 to 5000 nM; on JAK3 (setting [2]) it was below 500 nM.
With `CCN(Cc1ccccc1)C(=O)c1csc(-c2ccnc3[nH]ccc23)n1` [compound 404], the Ki at JAK2 (setting [2]), on ROCK I (setting [2]) and on JAK3 (setting [2]) was below 500 nM each time.
For `O=C(c1cc(-c2ccnc3[nH]ccc23)c[nH]1)N1CCCC1C(F)(F)F` (stereo not drawn) [compound 374], the Ki at JAK2 (setting [2]), at ROCK I (setting [2]) and on JAK3 (setting [2]) was below 500 nM each time.
With `N#CC1(c2cccc(-c3ccnc4[nH]ccc34)n2)CCCCC1` [compound 103, 1-(6-(1H-pyrrolo[2,3-b]pyridin-4-yl)pyridin-2-yl)cyclohexanecarbonitrile], the Ki was below 500 nM at JAK2 (enzyme inhibition, Table 5); below 500 nM at ROCK I (setting [1]); below 500 nM on JAK3 (enzyme inhibition, Table 5).
As for `CN(Cc1cccnc1)c1cccc(-c2ccnc3[nH]ccc23)n1` [compound 56, N-Methyl-N-((pyridin-3-yl)methyl)-6-(1H-pyrrolo[2,3-b]pyridin-4-yl)pyridin-2-amine], the Ki on JAK2 (enzyme inhibition, Table 5) was below 500 nM; on ROCK I (setting [1]) it was 500 to 5000 nM; on JAK3 (enzyme inhibition, Table 5), 500 to 5000 nM.
As for `CN(C)C1CCN(C(=O)c2cc(-c3c(Cl)cnc4[nH]ccc34)c[nH]2)C1` (stereo not drawn) [compound 355], the Ki at JAK2 (setting [2]) was below 500 nM; at ROCK I (setting [2]), above 4000 nM; on JAK3 (setting [2]), 500 to 5000 nM.
Regarding `C[C@@H]1CC[C@@H](C)N1C(=O)c1csc(-c2ccnc3[nH]ccc23)n1` [compound 416], the Ki at JAK2 (setting [2]), on ROCK I (setting [2]) and at JAK3 (setting [2]) was below 500 nM throughout.
Regarding `C=CCN(CC=C)C(=O)c1cc(-c2c(F)cnc3[nH]ccc23)c[nH]1` [compound 383], the Ki was below 500 nM at JAK2 (setting [2]), 500 to 5000 nM at ROCK I (setting [2]) and below 500 nM on JAK3 (setting [2]).
As to `N#CC1CCCN1C(=O)c1cc(-c2c(Cl)cnc3[nH]ccc23)c[nH]1` (stereo not drawn) [compound 357], the figures for the Ki on JAK2 (setting [2]), at ROCK I (setting [2]) and on JAK3 (setting [2]) were below 500 nM, 500 to 5000 nM and below 500 nM, respectively.
In the case of `Oc1cccc(-c2ccnc3[nH]ccc23)c1` [compound 105, 3-(1H-Pyrrolo[2,3-b]pyridin-4-yl)-phenol], the Ki was below 500 nM on JAK2 (enzyme inhibition, Table 5); below 500 nM at ROCK I (setting [1]); below 500 nM on JAK3 (enzyme inhibition, Table 5).
For the compound `Clc1ccc(-c2ccnc3[nH]ccc23)cc1Cl` [compound 41, 4-(3,4-Dichloro-phenyl)-1H-pyrrolo[2,3-b]pyridine], the Ki is below 500 nM on JAK2 (enzyme inhibition, Table 5); below 500 nM at ROCK I (setting [1]); 500 to 5000 nM at JAK3 (enzyme inhibition, Table 5).
Turning to `N#CCC(=O)N1CCCN(c2cccc(-c3ccnc4[nH]ccc34)n2)CC1` [compound 19], the Ki on JAK2 (enzyme inhibition, Table 5) is below 500 nM; on ROCK I (setting [1]) it was 500 to 5000 nM; on JAK3 (enzyme inhibition, Table 5) it was 500 to 5000 nM.
Turning to `NC(=O)c1ccccc1-c1ccnc2[nH]ccc12` [compound 380], the values for the Ki on JAK2 (setting [2]), at ROCK I (setting [2]) and at JAK3 (setting [2]) were above 5000 nM, above 4000 nM and above 5000 nM, respectively.
Turning to `CC(C)(Nc1nc(-c2ccnc3[nH]ccc23)ncc1F)C(=O)NCC(F)(F)F` [compound 131], the Ki was 500 to 5000 nM on JAK2 (enzyme inhibition, Table 5); 500 to 5000 nM on ROCK I (setting [1]); below 500 nM on JAK3 (enzyme inhibition, Table 5).
In the case of `CC(C)CN(C)C(=O)c1ccc(-c2ccnc3[nH]ccc23)s1` [compound 326], the Ki at JAK2 (setting [2]), at ROCK I (setting [2]) and on JAK3 (setting [2]) was below 500 nM throughout.
Take `Cc1ccccc1-c1ccnc2[nH]ccc12` [compound 219]: the Ki was above 5000 nM at JAK2 (setting [2]), 500 to 5000 nM at ROCK I (setting [2]) and 500 to 5000 nM at JAK3 (setting [2]).
